System: OVCAR3 cells
Test: OVCAR3 i.p. tumor model in athymic nude mice: tumor burden and ascites after 4 weeks of treatment
Type: in vivo
Settings: for % Reduction Ascites / % Reduction Tumor Burden: compared to controls; for % Reduction Ascites: ascites volume at end of 4 weeks of treatment; for % Reduction Tumor Burden: treatment for 4 weeks starting 2 weeks after i.p. inoculation, VEGF-Trap s.c. twice weekly, paclitaxel i.p. 3 times weekly; for Ascites formation (in words): end of 4 weeks of treatment; for Mice with tumors in the hilus of the liver / Mice with tumors on the diaphragm: end of experiment
Procedure: Experimental Design. Two experiments, each with 4 groups of female athymic nude mice (5-7 wks, 20 mice/experiment, total n=40) were inoculated i.p. with OVCAR3 cells. Two weeks after inoculation, 1 group was treated with VEGF-Trap s.c. twice weekly+paclitaxel i.p. 3 times weekly for 4 weeks. The second group was treated with VEGF-Trap alone. The third group was treated with paclitaxel alone. The remaining group was treated with vehicle. At the end of the experiments, the mice were euthanized, the volume of ascites was measured and all visible tumor was excised and weighed.

Compound	% Reduction Ascites	% Reduction Tumor Burden	% Reduction Tumor Burden (listed as VEGF-Trap)	Ascites formation (in words) (listed as VEGF trap)	Ascites formation (in words) (listed as VEGF-Trap)	Mice with tumors in the hilus of the liver	Mice with tumors on the diaphragm	% Reduction Ascites (listed as Paclitaxel)	% Reduction Tumor Burden (listed as paclitaxel)
VEGF Trap: VEGF-receptor based trap antagonist VEGFR1R2-FcΔC1(a) (SEQ ID NOs: 1-2), capable of high affinity binding of VEGF	96.5%	56.7%	55.7%	no demonstrable ascites	Virtually no ascites developed	60%	Ninety		
CC(=O)O[C@H]1C(=O)[C@@]2(C)[C@H]([C@H](OC(=O)c3ccccc3)[C@]3(O)C[C@H](OC(=O)[C@H](O)[C@@H](NC(=O)c4ccccc4)c4ccccc4)C(C)=C1C3(C)C)[C@]1(OC(C)=O)CO[C@@H]1C[C@@H]2O [Taxol ™, paclitaxel, reference compound]	85.4%	55.9%				60%	80%	85.5%	54.8%
